From US11246929B2, “Combination of a protein kinase inhibitor and an additional chemotherapeutic agent” (Merck Patent GmbH, priority 2016, dated 2022)

Legend:
Test in all cases: SRB growth inhibition, 93 cell lines panel
Type in all cases: cell-based
SKMEL5 = settings: Homo sapiens, SK-MEL-5; SKMEL5, skin; read-out: GI50 of etoposide (±Compound 1)
Protocol: (§1) 90 μl of cells, after a 48-hour pre-growth period, were treated by mixing with 10 μl of the compound-containing media (resulting in a final DMSO concentration of 0.1%).
(§2) This is the drug concentration causing a 50% reduction compared to the net protein increase in control cells during the drug incubation period. In other words, G150 is IC50 corrected for time zero. […] TGI was calculated from Ti=Tz. […] It was calculated as 100×[(Ti−Tz)/Tz]=−50.

HCT116 = settings: Homo sapiens, HCT-116; HCT116, colon; read-out: GI50 of etoposide (±Compound 1)
Protocol: as §1, §2

NCIH292 = settings: Homo sapiens, NCI-H292; NCIH292, lung; read-out: GI50 of etoposide (±Compound 1)
Protocol: as §1, §2

DU145 = settings: Homo sapiens, DU-145; DU145, prostate; read-out: GI50 of etoposide (±Compound 1)
Protocol: as §1, §2

MG63 = settings: Homo sapiens, MG-63; MG63, bone; read-out: GI50 of etoposide (±Compound 1)
Protocol: as §1, §2

OVCAR4 = settings: Homo sapiens, OVCAR-4; OVCAR4, ovary; read-out: GI50 of etoposide (±Compound 1)
Protocol: as §1, §2

MDAMB435 = settings: Homo sapiens, MDA-MB-435; MDAMB435, skin; read-out: GI50 of etoposide (±Compound 1)
Protocol: as §1, §2

OVCAR3 = settings: Homo sapiens, OVCAR-3; OVCAR3, ovary; read-out: GI50 of etoposide (±Compound 1)
Protocol: as §1, §2

ASPC1 = settings: Homo sapiens; ASPC1, pancreas; read-out: GI50 of etoposide (±Compound 1)
Protocol: as §1, §2

IGROV1 = settings: Homo sapiens, IGROV-1; IGROV1, ovary; read-out: GI50 of etoposide (±Compound 1)
Protocol: as §1, §2

NCIH460 = settings: Homo sapiens, NCI-H460; NCIH460, lung; read-out: GI50 of etoposide (±Compound 1)
Protocol: as §1, §2

A549 = settings: Homo sapiens; A549, lung; read-out: GI50 of etoposide (±Compound 1)
Protocol: as §1, §2

EFO21 = settings: Homo sapiens, EFO-21; EFO21, ovary; read-out: GI50 of etoposide (±Compound 1)
Protocol: as §1, §2

A431 = settings: Homo sapiens, A-431; A431, skin; read-out: GI50 of etoposide (±Compound 1)
Protocol: as §1, §2

22RV1 = settings: Homo sapiens; 22RV1, prostate; read-out: GI50 of etoposide (±Compound 1)
Protocol: as §1, §2

MDAMB468 = settings: Homo sapiens, MDA-MB-468; MDAMB468, breast; read-out: GI50 of etoposide (±Compound 1)
Protocol: as §1, §2

RDES = settings: RD-ES, bone, read-out: GI50 of etoposide (±Compound 1)
Protocol: as §1, §2

COLO678 = settings: Homo sapiens, COLO-678; COLO678, colon; read-out: GI50 of etoposide (±Compound 1)
Protocol: as §1, §2

GRANTA-519 = settings: Homo sapiens; GRANTA-519, hematological; read-out: GI50 of etoposide (±Compound 1)
Protocol: as §1, §2

ACHN = settings: Homo sapiens, kidney, read-out: GI50 of etoposide (±Compound 1)
Protocol: as §1, §2

WS15-NHL = settings: hematological, read-out: GI50 of etoposide (±Compound 1)
Protocol: as §1, §2

PC3 = settings: Homo sapiens, PC-3; PC3, prostate; read-out: GI50 of etoposide (±Compound 1)
Protocol: as §1, §2

SKLMS1 = settings: Homo sapiens, SK-LMS-1; SKLMS1, uterus; read-out: GI50 of etoposide (±Compound 1)
Protocol: as §1, §2

SKBR3 = settings: Homo sapiens, SK-BR-3; SKBR3, breast; read-out: GI50 of etoposide (±Compound 1)
Protocol: as §1, §2

CAKI1 = settings: Homo sapiens, CAKI-1; CAKI1, kidney; read-out: GI50 of etoposide (±Compound 1)
Protocol: as §1, §2

COLO205 = settings: Homo sapiens, COLO 205; COLO205, colon; read-out: GI50 of etoposide (±Compound 1)
Protocol: as §1, §2

15O31 = settings: 15O31, kidney; read-out: GI50 of etoposide (±Compound 1)
Protocol: as §1, §2

MDAMB231 = settings: Homo sapiens, MDA-MB-231; MDAMB231, breast; read-out: GI50 of etoposide (±Compound 1)
Protocol: as §1, §2

MINO = settings: Homo sapiens, hematological, read-out: GI50 of etoposide (±Compound 1)
Protocol: as §1, §2

J82 = settings: Homo sapiens; J82, bladder; read-out: GI50 of etoposide (±Compound 1)
Protocol: as §1, §2

GI50 (SKMEL5): 0.558 µM
GI50 (HCT116): 0.77 µM
GI50 (DU145): 0.701 µM
GI50 (OVCAR4): > 10 µM
GI50 (MDAMB435): 1.14 µM
GI50 (OVCAR3): 2.54 µM
GI50 (ASPC1): > 10 µM
GI50 (A549): 0.39 µM
GI50 (A431): 1.52 µM
GI50 (22RV1): 0.234 µM
GI50 (MDAMB468): 1.17 µM
GI50 (COLO678): 10.8 µM
GI50 (ACHN): 0.714 µM
GI50 (PC3): 5.24 µM
GI50 (SKLMS1): 1.64 µM
GI50 (SKBR3): 0.432 µM
GI50 (COLO205): 1.05 µM
GI50 (MDAMB231): 1.94 µM
SMILES: COc1cc([C@@H]2c3cc4c(cc3[C@@H](O[C@@H]3O[C@@H]5CO[C@@H](C)O[C@H]5[C@H](O)[C@H]3O)[C@H]3COC(=O)[C@H]23)OCO4)cc(OC)c1O [Etoposide]
GI50 (NCIH292): 1.65 µM
GI50 (MG63): 1.02 µM
GI50 (IGROV1): 1.06 µM
GI50 (NCIH460): 0.167 µM
GI50 (EFO21): 8.22 µM
GI50 (RDES): 0.412 µM
GI50 (GRANTA-519): 0.247 µM
GI50 (WS15-NHL): 0.149 µM
GI50 (CAKI1): 0.52 µM
GI50 (15O31): 7.91 µM
GI50 (MINO): 0.236 µM
GI50 (J82): 7.93 µM
